{"source": "patent US20220144913A1", "about": "“PERSONALIZED AND TIMED RELEASE OF BIOMOLECULES” (The General Hospital Corporation, priority 2019, published 2022)", "molecules": {"B1": {"name": "sGP130: soluble GP130 secreted from cells engineered with EF1α-sGP130 constructs; inhibits IL-6 signaling (protein)", "chain": "QLLEPCGYIYPEFPVVQRGSNFTAICVLKEACLQHYYVNASYIVWKTNHAAVPREQVTVINRTTSSVTFTDVVLPSVQLTCNILSFGQIEQNVYGVTMLSGFPPDKPTNLTCIVNEGKNMLCQWDPGRETYLETNYTLKSEWATEKFPDCQSKHGTSCMVSYMPTYYVNIEVWVEAENALGKVSSESINFDPVDKVKPTPPYNLSVTNSEELSSILKLSWVSSGLGGLLDLKSDIQYRTKDASTWIQVPLEDTMSPRTSFTVQDLKPFTEYVFRIRSIKDSGKGYWSDWSEEASGTTYEDRPSRPPSFWYKTNPSHGQEYRSVRLIWKALPLSEANGKILDYEVILTQSKSVSQTYTVTGTELTVNLTNDRYVASLAARNKVGKSAAAVLTIPSPHVTAAYSVVNLKAFPKDNLLWVEWTPPPKPVSKYILEWCVLSENAPCVEDWQQEDATVNRTHLRGRLLESKCYQITVTPVFATGPGGSESLKAYLKQAAPARGPTVRTKKVGKNEAVLAWDQIPVDDQNGFIRNYSISYRTSVGKEMVVHVDSSHTEYTLSSLSSDTLYMVRMAAYTDEGGKDGPEFTFTTPKFAQGEIE"}}, "key": {"[1]": {"tested_on": "circadian clocks of Jurkat human leukemic T-cells", "test": "KL001 disruption of circadian clock driven GLUC secretion, continuous flow", "format": "cell-based", "details": "20 μM KL001 for 24 hours before dexamethasone synchronization", "experimental": "Luminescence was recorded by the device as relative luminescence units (RLU). Continuous monitoring of plasma luciferase from mice is described in a separate section below. To monitor continuous secretion of luciferase from cells in vitro over time, cells were seeded onto a custom-made constant flow cell culture and collection device. For each experiment, 16×10^6 cells in approximately 2 ml of media were injected into a tube-like bag made from air permeable material (Rogers Corporation HT-6240 Transparent 0.010″) with approximate dimensions of 20 cm in length and 0.6 cm in diameter. We have previously shown that vessels made from this material are optimal for the expansion of human T-cells (Li et al. 2018). Silicone tubing (Platinum LS14 Masterflex cat #96410-14) was used to connect the cell containing vessel to media filled syringes operated by a PHD 2000 syringe pump (Harvard Apparatus) and to a Biologic Biofrac fraction collector (Biorad). Cells were allowed to settle for 3-4 hours prior to flowing media at 3.8 ml/hour. […] For circadian experiments, cells were synchronized with 10 μM dexamethasone (Sigma cat #D4902) for 30 minutes, washed 3 times with PBS and seeded onto a continuous flow vessel either immediately or after a 24-hour incubation. […]"}, "NFkB": {"tested_on": "NFkB", "test": "NFkB-GLuc reporter stimulation in HepG2 hepatocytes", "format": "cell-based", "details": "two doses of stimulant; media sampled after 12 hours", "from_the_text": "HepG2 hepatocytes were engineered with the NFkB-GLuc construct and stimulated with either inflammatory LPS or IL-1b at two different doses."}, "[2]": {"details": "in vivo; cited from earlier work"}, "[3]": {"details": "in vivo; cited from earlier work", "remark": "listed apart in the source"}, "DS-1 cells": {"tested_on": "DS-1 cells", "test": "IL-6-dependent proliferation of DS-1 cells in sGP130 conditioned media", "format": "cell-based", "details": "conditioned media with secreted sGP130 from cells engineered with EF1α-sGP130", "from_the_text": "Media from cells engineered with EF1a-sGP130 constructs was sampled, along with cell lysate, showing that measurable protein levels increase over time (FIG. 15A).\nMedia from cells engineered with EF1α-sGP130 constructs was sampled, along with cell lysate, showing that measurable protein levels increase over time (FIG. 15A)."}}, "note": "“Also recorded” adds a separate entry of the source. Like-named read-outs stand apart in the source and are kept apart here."}
{"molecule": "CS(=O)(=O)N(Cc1ccco1)CC(O)Cn1c2ccccc2c2ccccc21", "note": "(stereo not shown) [KL001]", "values": [{"measurement": "effect on dynamic nature of Circa2 driven GLUC secretion", "setting": "[1]; stable Jurkat Circa2-GLUC cells", "result": "severely disrupting the dynamic nature; also recorded: abolishes dynamic nature"}, {"measurement": "effect on EF1α driven GLUC secretion", "setting": "[1]; stable Jurkat EF1α-GLUC cells", "result": "little to no effect"}]}
{"molecule": "IL-1b: cytokine stimulant acting on a different response element (MAPK)", "values": [{"measurement": "relative GLuc signal", "setting": "NFkB", "result": "not stimulated"}]}
{"molecule": "bacterial lipopolysaccharide [LPS]", "values": [{"measurement": "relative GLuc signal", "setting": "NFkB", "result": "increased dose dependently"}]}
{"molecule": "glucagon-like petide-1 (HAEGTFTSDVSSYLEGQAAKEEFIIAWLVKGRG; listed as Homo sapiens) [GLP1]", "values": [{"measurement": "half-life", "setting": "[2]", "result": 30, "unit": "min"}]}
{"molecule": "parathyroid hormone [PTH]", "values": [{"measurement": "half-life", "setting": "[3]", "result": "around 5 minutes"}]}
{"molecule": "B1", "values": [{"measurement": "proliferation of DS-1 cells", "setting": "DS-1 cells", "result": "proliferation is suppressed; also recorded: suppress IL-6-dependent proliferation"}]}
